From patent publication EP0349061B1, “Immunosuppressant agent” (Merck & Co., Inc., priority 1988, dated 1990)
Read-outs that look alike come from different tables or passages of the source.

Tested on: mouse T lymphocytes
Assay: T-cell proliferation assay (ionomycin plus PMA induced T-cell stimulation, tritiated thymidine uptake)
Type: cell-based, C57B1/6 mice
Settings: for IC50: read-out: IC₅₀, inhibition of T-cell proliferation
Procedure: The principle of this assay is to measure the proliferation of mouse T lymphocytes stimulated with the combination of ionomycin plus PMA. A positive sample in this assay will inhibit T-cell proliferation, as indicated by reduced tritiated thymidine uptake.
Purified demethimmunomycin, as prepared by HPLC above, was dissolved in absolute ethanol at 1 mg/ml.
Spleens from C57B1/6 mice were taken under sterile conditions and gently dissociated in ice-cold RPMI 1640 culture medium (GIBCO, Grand Island, N.Y.) supplemented with 10% heat-inactivated fetal calf serum (GIBCO). Cells were pelleted by centrifugation at 1500 rpm for 8 minutes. Contaminating red cells were removed by treating the pellet with ammonium chloride lysing buffer (GIBCO) for 2 minutes at 4°C. Cold medium was added and cells were again centrifuged at 1500 rpm for 8 minutes. T lymphocytes were then isolated by separation of the cell suspension on nylon wool columns as follows: Nylon wool columns were prepared by packing approximately 4 grams of washed and dried nylon wool into 20 ml plastic syringes. The columns were sterilized by autoclaving at 250°F [120°C] for 30 minutes. Nylon wool columns were wetted with warm (37°C) culture medium and rinsed with the same medium. Washed spleen cells resuspended in warm medium were slowly applied to the nylon wool. The columns were then incubated in an upright position at 37°C for 1 hour. Non-adherent T lymphocytes were eluted from the columns with warm culture medium and the cell suspensions were spun as above.
Purified T lymphocytes were resuspended at 2.5 x 10⁵ cells/ml in complete culture medium composed of RPMI 1640 medium with 10% heat-inactivated fetal calf serum, […] glutamine, 1 mM sodium pyruvate, 2 x 10⁻⁵ M 2-mercaptoethanol and 50 »g/ml gentamycin. Ionomycin was added at 250 ng/ml and PMA at 10 ng/ml. The cell suspension was immediately distributed into 96 well flat-bottom microculture plates (Costar)(registered trade mark) at 200 »l/well. The control, being the medium without test drug, and various below-indicated dilutions of the sample (above-described purified demethimmunomycin) to be tested were then added in triplicate wells at 20 »l/well. L-679,934 was used as a standard. The culture plates were then incubated at 37°C in a humidified atmosphere of 5% CO₂-95% air for 44 hours. The proliferation of T lymphocytes was assessed by measurement of tritiated thymidine incorporation. After 44 hours of culturing, the cells were pulse-labelled with 2 »Ci/well of tritiated thymidine (NEN, Cambridge, MA). After another 4 hours of incubation, cultures were harvested on glass fiber filters using a multiple sample harvester. Radioactivity of filter discs corresponding to individual wells was measured by standard liquid scintillation counting methods (Betacounter). Mean counts per minute of replicate wells were calculated and the results expressed as percent inhibition of tritiated thymidine uptake (proliferation) as follows: [formula]
• 1. Mouse T cell cultures were pulsed with ³H-thymidine for 4 hours prior to harvesting at 48 hours. • 2. […] IC₅₀ = 1.4 ng/ml = 1.81 nM, for demethimmunomycin, (L-638,742), and generally in the range of 1.6 to 1.9 x 10⁻⁹ molar. • 4. Inhibition of T-cell proliferation by demethimmunomycin was reversed by the addition of 50»/ml of IL-2 (recombinant IL-2) at the initiation of culture.

[1] = Mus musculus, T-lymphocyte, 48 h

CC[C@@H]1/C=C(\C)C[C@H](C)C[C@H](OC)[C@H]2O[C@@](O)(C(=O)C(=O)N3CCCC[C@H]3C(=O)O[C@H](/C(C)=C/[C@@H]3CC[C@@H](O)[C@H](O)C3)[C@H](C)[C@@H](O)CC1=O)[C@H](C)C[C@@H]2OC [demethimmunomycin, 31-desmethoxy-31-hydroxy-L-683,590]
inhibition at 0.0006 µg/mL [1]: 0%
inhibition at 0.0009 µg/mL [1]: 9%
inhibition at 0.0013 µg/mL [1]: 38.2%
inhibition at 0.0019 µg/mL [1]: 72.1%
inhibition at 0.0029 µg/mL [1]: 86.3%
inhibition at 0.0044 µg/mL [1]: 91.9%
inhibition at 0.0066 µg/mL [1]: 97.9%
IC50 (Mus musculus, T-lymphocyte): 1.4 ng/mL
IC50 (Mus musculus, T-lymphocyte, range generally found): 1.6 to 1.9 nM
IC50 (Mus musculus, T-lymphocyte, same value as 1.4 ng/ml, given in molar terms): 1.81 nM
Inhibition of T-cell proliferation on addition of IL-2 (addition of recombinant IL-2 at the initiation of culture): reversed
